Several values for one entry are separate records, joined by “and”; a condition that tells them apart may be missing. Equal values may be shown once.
Key:
C-32 melanoma cells [1] = experiment: Lactate dehydrogenase release assay; format: cell-based; conditions: 1 hour at 37° C., 0.1% triton-X 100 = 100%
Method: Lactate dehydrogenase (LDH) is a stable enzyme that is rapidly released from the cells upon plasma membrane damage. The lactate dehydrogenase release assay kit was obtained from BioVision (Mountain View, Calif.) and the assay performed according to manufacturers instructions. Briefly, C-32 melanoma cells were either treated with free melittin or melittin-nanoparticles at various concentrations for 1 hour at 37° C. and the amount of lactate dehydrogenase released quantified. Cells treated with 0.1% triton-X 100 were taken as 100% release.

red cells = experiment: Hemolysis assay; format: cell-based, Human; conditions: 5×10^7 red cells, 37° C., 3 hours; read-out: IC50 (concentration that causes 50% hemolysis)
Method: Human umbilical cord blood was obtained from healthy donors after informed consent. The red cells were separated by centrifugation at 200 g for 10 min and resuspended in normal saline. Various concentrations of melittin or melittin-carrying nanoparticles were added to a fixed number of red cells (5×10^7 cells) and incubated at 37° C. for 3 hours. The release of hemoglobin was quantified by measuring the absorbance at 540 nm of the supernatant in a Microplate Reader (Model 550, BioRad) after centrifugation. The absorbance of the supernatant obtained by incubating the red cells in water under identical conditions was set to 100%.

C-32 melanoma cells [2] = experiment: Cell proliferation inhibition (MTT) assay; format: cell-based; conditions: 3 hours treatment, then 72 hours
Method: The effect of αvβ3-targeted melittin-nanoparticles on C-32 cancer cell proliferation was determined by the 3-[4,5-dimethylthiazol-2-yl]2,5-diphenyltetrazolium bromide (MTT) assay. The assay measures the activity of a mitochondrial enzyme that converts MTT, a tetrazolium salt, into a formazan crystal that absorbs at 570 nm.
(§1) C-32 melanoma cells were seeded in 96-well plates at a seeding density of 5,000 cells/well. After overnight incubation at 37° C., the cells were treated with free melittin, αvβ3-targeted or nontargeted melittin nanoparticles at various concentrations. At the end of 3 hours of incubation at 37° C., the cells were washed three times with PBS and incubated at 37° C. for a period of 72 hours. Then the medium was aspirated, and the cells rinsed with phosphate buffered saline (PBS) and 20 μl MTT solution (Sigma-Aldrich, St. Louis, Mo., final concentration 5 mg/ml in PBS) was added to each well. Cells were further incubated at 37° C. for 30 min, solubilized in 200 μl DMSO to dissolve the precipitated formazan and the absorbance read on a microplate reader (Biorad, Model 550) at 570 nm. Background absorbencies were subtracted and untreated control cells were set at 100% viability.

C-32 melanoma cells [3] = experiment: Cytochrome c release assay; format: cell-based
Method: Cytochrome c is a water-soluble 15 kDa protein residing in the mitochondrial intermembrane space and is released early during apoptosis. To determine if melittin-loaded nanodroplets trigger release of cytochrome c, C-32 melanoma cells were treated with varying concentrations of melittin-nanoparticles for 1 hour at 37° C. following which the mitochondria were isolated by using the Mitochondrial Isolation Kit (Pierce Biotechnology, Rockford, Ill.). The cytochrome c present in the mitochondrial and cytosol fractions thus obtained was assayed by using the cytochrome c ELISA kit (Invitrogen, Carlsbad, Calif.).

[4] = Surface plasmon resonance kinetics of melittin insertion in lipid monolayers (Biacore L1 chip); format: binding; conditions: melittin 15 to 1,000 nM
Method: The kinetics of melittin insertion in lipid monolayers of perfluorocarbon nanoparticles was studied by surface plasmon resonance (SPR). SPR detects change in the reflective index of a surface. Biacore-X biosensor and carboxy methylated dextran chip L1 were obtained from Biacore, Inc (Piscataway, N.J.). All solutions were degassed and filtered through a 0.22 μm membrane as recommended. A uniform lipid monolayer on an L1 chip was created by injecting 35 μl PFOB nanoparticles (3 μl/min). Loosely deposited nanoparticles were removed by first increasing the flow rate to […] for 2 min followed by an injection of NaOH (50 μl, 10 mM) to ensure a stable baseline. Complete coverage was confirmed by injecting the negative control bovine serum albumin (25 μl, […] in PBS). Melittin in various concentrations was then injected at a flow rate of 30 μl/min (30 μl in PBS; 15 nM to 1000 nM) and the response recorded for 60 minutes. At the end of each experiment the chip was regenerated by two consecutive injections of 3-[(3-cholamidopropyl)dimethylammonio]-1-propanesulfonate (CHAPS) (50 μl, 100 μl/min). A series of sensorgrams was generated for the selected melittin concentrations. The data were analyzed globally by simultaneously fitting the peptide sensorgrams obtained at various concentrations using the BIAevaluation™ software (Biacore, Inc, Piscataway, N.J.). […]

C-32 melanoma cells [5] = experiment: Cholesterol depletion, Amplex Red Cholesterol Assay; format: cell-based; conditions: 15 min at 37° C.
Method: The role of cholesterol in modulating the melittin activity on the cell membrane was assessed by depleting cells of cholesterol before the cell proliferation assay and flow cytometry (as described above). C-32 Melanoma cells were treated with either 0.25 mM or 0.5 mM methyl beta cyclodextrin (Sigma, St. Louis, Mo.) for 15 min at 37° C. to deplete cholesterol. To quantify the amount of cholesterol depleted by methyl beta cyclodextrin, total lipids were extracted from melanoma cells by standard procedure. Briefly, 10^6 C-32 melanoma cells grown in 6-well tissue culture plates were scraped by a rubber policeman and the pellet obtained post-centrifugation was treated with 200 μl chloroform-methanol (2:1). After spinning top speed in a microcentrifuge, the organic phase was collected and vacuum dried. The dried lipids were then dissolved in 20 μl of 2-propanol containing 10% triton-X 100 as assay samples. The total cholesterol content in the cells was determined by using the Amplex® Red Cholesterol Assay kit (Sigma, St. Louis, Mo.). Cholesterol standard was used for calibration as per manufacturer's recommendations.

[6] = test system: cholesterol-depleted C-32 Melanoma cells; experiment: Effect of cholesterol depletion on cell death (MTT assay); format: cell-based; conditions: 0.25 mM and 0.5 mM, no melittin
Method: as §1
The role of cholesterol in modulating the melittin activity on the cell membrane was assessed by depleting cells of cholesterol before the cell proliferation assay and flow cytometry (as described above). […] To quantify the amount of cholesterol depleted by methyl beta cyclodextrin, total lipids were extracted from melanoma cells by standard procedure. […] The total cholesterol content in the cells was determined by using the Amplex® Red Cholesterol Assay kit (Sigma, St. Louis, Mo.). […]

In the case of CC[C@H](C)[C@H](NC(=O)CN)C(=O)NCC(=O)N[C@@H](C)C(=O)N[C@H](C(=O)N[C@@H](CC(C)C)C(=O)N[C@@H](CCCCN)C(=O)N[C@H](C(=O)N[C@@H](CC(C)C)C(=O)N[C@H](C(=O)N[C@H](C(=O)NCC(=O)N[C@@H](CC(C)C)C(=O)N1CCC[C@H]1C(=O)N[C@@H](C)C(=O)N[C@@H](CC(C)C)C(=O)N[C@H](C(=O)N[C@@H](CO)C(=O)N[C@@H](Cc1c[nH]c2ccccc12)C(=O)N[C@H](C(=O)N[C@@H](CCCCN)C(=O)N[C@@H](CCCNC(=N)N)C(=O)N[C@@H](CCCCN)C(=O)N[C@@H](CCCNC(=N)N)C(=O)N[C@@H](CCC(N)=O)C(=O)N[C@@H](CCC(N)=O)C(N)=O)[C@@H](C)CC)[C@@H](C)CC)[C@@H](C)O)[C@@H](C)O)C(C)C)C(C)C [free melittin, melittin], the LDH release (C-32 melanoma cells [1]; 1 μM) is reported as 19.17 (±4.2) percent, the LDH release (C-32 melanoma cells [1]; 5 μM) is reported as 68.14 (±7.1) percent and 68.14±4.3% and the IC50 (red cells) is reported as 510 ± 120 nM. The IC50 (C-32 melanoma cells [2]) was 930 ± 80 nM, the “release of cytochrome c from the mitochondria” value (C-32 melanoma cells [3]; 1 hour at 37° C., varying concentrations) was “dose-dependent release” and the cytochrome c release (C-32 melanoma cells [3]; at the higher concentrations) was 55.48±6.1%. The “association rate constant (ka)” value [4] was 4.5±0.35×10^6 (Ms)^−1.
With methyl beta cyclodextrin the depletion of cholesterol (C-32 melanoma cells [5]; 0.25 mM) was 7%, the depletion of cholesterol (C-32 melanoma cells [5]; 0.5 mM) was 12% and the cell proliferation [6] was “no change in cell proliferation”.
